Measurements published in ChEMBL document CHEMBL3046686, “Isoxazole derivatives as a potential insecticide for managing Callosobruchus chinensis” (2010).
Converted amounts (≈) assume the structure as drawn.

Legend:
Callosobruchus chinensis [1] = experiment: Insecticidal activity against Callosobruchus chinensis assessed as mortality at 1000 mg/l at 27 +/- 1 degC and 70% RH; format: functional
Callosobruchus chinensis [2] = experiment: Insecticidal activity against Callosobruchus chinensis assessed as mortality at 27 +/- 1 degC and 70% RH; format: functional

Row | SMILES | mortality at 1000 µg/mL (Callosobruchus chinensis [1]) [%] | LC50 (Callosobruchus chinensis [2]) [µg/mL]
1 | Clc1ccc(-c2cc(-c3ccccc3)on2)cc1 | 65 | –
2 | COc1ccc(-c2cc(-c3ccccc3)no2)cc1 | 66 | –
3 | Cc1ccc(-c2cc(-c3ccccc3)no2)cc1 | 65 | –
4 | COc1ccc(-c2cc(-c3ccc(Cl)cc3)on2)cc1 | 85 | 330 (≈ 1150 µM)
5 | Fc1ccc(-c2cc(-c3ccccc3)on2)cc1 | 86 | 254 (≈ 1060 µM)
6 | Fc1ccc(-c2cc(-c3ccc(Cl)cc3)on2)cc1 | 59 | –
7 | Cc1ccc(-c2cc(-c3ccc(F)cc3)no2)cc1 | 67 | –
8 | COc1ccc(-c2cc(-c3ccc(F)cc3)no2)cc1 | 88 | 289 (≈ 1070 µM)
9 | Clc1ccc(-c2cc(-c3ccc(Cl)cc3)on2)cc1 | 90 | 134 (≈ 462 µM)
10 | Cc1ccc(-c2cc(-c3ccc(Cl)cc3)no2)cc1 | 63 | –
11 | COc1ccc(-c2cc(-c3ccc(Cl)cc3)no2)cc1 | 82 | 354 (≈ 1240 µM)
12 | Clc1ccccc1-c1cc(-c2ccccc2)on1 | 78 | 36 (≈ 141 µM)
13 | Clc1ccc(-c2cc(-c3ccccc3Cl)no2)cc1 | 85 | 338 (≈ 1160 µM)
14 | Cc1ccc(-c2cc(-c3ccccc3Cl)no2)cc1 | 68 | –
15 | COc1ccc(-c2cc(-c3ccccc3Cl)no2)cc1 | 86 | 110 (≈ 385 µM)
16 | COc1ccc(-c2cc(-c3ccccc3)on2)cc1 | 58 | –
17 | COc1ccc(-c2cc(-c3ccc(C)cc3)on2)cc1 | 84 | 93 (≈ 351 µM)
18 | COc1ccc(-c2cc(-c3ccc(OC)cc3)on2)cc1 | 89 | 296 (≈ 1050 µM)
19 | Clc1ccc(-c2cc(-c3ccccc3)no2)cc1 | 46 | –
20 | c1ccc(-c2cc(-c3ccccc3)on2)cc1 [3,5-DIPHENYLISOXAZOLE] | 67 | –
21 | COP(=O)(OC)OC=C(Cl)Cl [DICHLORVOS] | – | 155 (≈ 701 µM)
